Measurements taken from the NIST ThermoML archive (doi:10.1016/j.jct.2011.02.008).

Experiment: xn = mol fraction of the nth substance listed
Details: Liquid, Vibrating tube method

COC(=O)c1ccccc1 [methyl benzoate] + C1CCCCC1
mass density [kg/m3]
Details	x1 = 0.0985	x1 = 0.1963	x1 = 0.2939	x1 = 0.3942	x1 = 0.4955	x1 = 0.596	x1 = 0.6975	x1 = 0.7993	x1 = 0.8982
278.15 K, 100 kPa	823.9	855.7	887.6	919.6	951.4	983.4	1014.3	1043.9	1072.7
278.15 K, 1000 kPa	824.5	856.4	888.3	920.2	952	984	1014.9	1044.4	1073.2
278.15 K, 5000 kPa	827.6	859.3	891.2	923	954.8	986.7	1017.4	1046.9	1075.6
278.15 K, 10000 kPa	831.2	863	894.7	926.4	958	989.9	1020.5	1049.8	1078.5
278.15 K, 15000 kPa	834.6	866.3	898	929.7	961.2	993	1023.5	1052.8	1081.3
278.15 K, 20000 kPa	838	869.6	901.3	932.8	964.3	996	1026.4	1055.6	1084.1
278.15 K, 25000 kPa	841.2	872.8	904.4	935.9	967.3	998.9	1029.3	1058.3	1086.7
278.15 K, 30000 kPa	844.4	875.9	907.4	938.9	970.2	1001.7	1032	1061	1089.3
278.15 K, 35000 kPa	847.4	878.9	910.4	941.8	973	1004.5	1034.7	1063.6	1091.9
278.15 K, 40000 kPa	850.5	881.8	913.3	944.6	975.8	1007.2	1037.4	1066.2	1094.4
278.15 K, 45000 kPa	–	884.6	916.1	947.4	978.5	1009.9	1040	1068.7	1096.9
278.15 K, 50000 kPa	–	887.4	918.8	950	981.1	1012.5	1042.5	1071.2	1099.3
278.15 K, 55000 kPa	–	890.1	921.5	952.7	983.7	1015	1045	1073.7	1101.7
278.15 K, 60000 kPa	–	892.6	923.9	955.1	986.3	1017.4	1047.3	1075.9	1103.8
288.15 K, 100 kPa	814.3	846.1	878	909.9	941.8	973.8	1004.7	1034.2	1063.1
288.15 K, 1000 kPa	815	846.9	878.7	910.6	942.4	974.5	1005.3	1034.8	1063.7
288.15 K, 5000 kPa	818.2	850	881.8	913.6	945.3	976.6	1008	1037.5	1066.2
288.15 K, 10000 kPa	822	853.8	885.5	917.2	948.8	980.7	1011.3	1040.6	1069.2
288.15 K, 15000 kPa	825.8	857.4	889.1	920.7	952.2	983.9	1014.4	1043.6	1072.2
288.15 K, 20000 kPa	829.2	860.9	892.5	924	955.4	987.1	1017.5	1046.6	1075
288.15 K, 25000 kPa	832.7	864.3	895.8	927.2	958.6	990.1	1020.5	1049.5	1077.9
288.15 K, 30000 kPa	836	867.5	899	930.3	961.6	993.1	1023.4	1052.3	1080.6
288.15 K, 35000 kPa	839.1	870.7	902.1	933.4	964.6	996	1026.2	1055	1083.3
288.15 K, 40000 kPa	842.2	873.7	905.1	936.3	967.5	998.8	1028.9	1057.7	1085.9
288.15 K, 45000 kPa	845.2	876.7	908	939.2	970.3	1001.6	1031.6	1060.3	1088.4
288.15 K, 50000 kPa	848.1	879.6	910.9	942	973	1004.3	1034.3	1062.9	1090.9
288.15 K, 55000 kPa	850.9	882.4	913.6	944.7	975.7	1006.9	1036.8	1065.5	1093.4
288.15 K, 60000 kPa	853.5	885	916.2	947.2	978.2	1009.3	1039.2	1067.8	1095.9
298.15 K, 100 kPa	804.8	836.5	868.4	900.3	932.2	964.2	995.1	1024.7	1053.6
298.15 K, 1000 kPa	805.6	837.3	869.2	901	932.9	964.9	995.8	1025.3	1054.2
298.15 K, 5000 kPa	809	840.7	872.5	904.2	935.9	967.9	998.6	1028.1	1056.9
298.15 K, 10000 kPa	813.1	844.7	876.3	908	939.6	971.4	1002	1031.4	1060
298.15 K, 15000 kPa	817.1	848.6	880.1	911.7	943.2	974.8	1005.4	1034.6	1063.1
298.15 K, 20000 kPa	820.8	852.2	883.7	915.2	946.6	978.2	1008.5	1037.7	1066.1
298.15 K, 25000 kPa	824.4	855.8	887.2	918.6	949.9	981.4	1011.7	1040.7	1069
298.15 K, 30000 kPa	827.9	859.2	890.5	921.9	953.1	984.5	1014.7	1043.6	1071.9
298.15 K, 35000 kPa	831.2	862.5	893.8	925	956.2	987.5	1017.7	1046.5	1074.7
298.15 K, 40000 kPa	834.4	865.7	896.9	928.1	959.2	990.5	1020.5	1049.3	1077.4
298.15 K, 45000 kPa	837.5	868.8	900	931.1	962.1	993.4	1023.3	1052.1	1080.1
298.15 K, 50000 kPa	840.5	871.8	902.9	934	965	996.2	1026.1	1054.7	1082.7
298.15 K, 55000 kPa	843.4	874.7	905.8	936.9	967.8	999	1028.8	1057.4	1085.3
298.15 K, 60000 kPa	846.1	877.3	908.6	939.5	970.3	1001.4	1031.3	1059.9	1087.8
308.15 K, 100 kPa	795.4	827	858.8	890.8	922.6	954.7	985.6	1015.2	1044.1
308.15 K, 1000 kPa	796.2	827.8	859.6	891.5	923.4	955.4	986.3	1015.9	1044.7
308.15 K, 5000 kPa	799.8	831.2	863.1	894.9	926.6	958.5	989.3	1018.7	1047.5
308.15 K, 10000 kPa	804.3	835.7	867.2	898.9	930.5	962.3	992.9	1022.2	1050.8
308.15 K, 15000 kPa	808.3	839.8	871.2	902.8	934.2	965.9	996.4	1025.6	1054.1
308.15 K, 20000 kPa	812.3	843.6	875	906.5	937.8	969.4	999.8	1028.8	1057.2
308.15 K, 25000 kPa	816.1	847.3	878.7	910	941.3	972.8	1003	1032	1060.3
308.15 K, 30000 kPa	819.7	850.9	882.2	913.5	944.6	976	1006.2	1035	1063.3
308.15 K, 35000 kPa	823.2	854.4	885.6	916.8	947.9	979.2	1009.3	1038	1066.2
308.15 K, 40000 kPa	826.5	857.7	888.9	920	951	982.3	1012.3	1041	1069
308.15 K, 45000 kPa	829.8	861	892.1	923.2	954.1	985.3	1015.2	1043.8	1071.8
308.15 K, 50000 kPa	833	864.1	895.1	926.2	957.1	988.2	1018.1	1046.6	1074.6
308.15 K, 55000 kPa	836	867.1	898.2	929.2	960	991.1	1020.9	1049.3	1077.2
308.15 K, 60000 kPa	838.8	869.5	900.9	931.9	962.7	993.7	1023.4	1051.9	1079.9
318.15 K, 100 kPa	785.8	817.4	849.2	881.3	913.1	945.2	976.1	1005.8	1034.6
318.15 K, 1000 kPa	786.8	818.3	850.1	882.1	913.9	945.9	976.8	1006.5	1035.2
318.15 K, 5000 kPa	790.7	822	853.8	885.7	917.3	949.3	980	1009.5	1038.2
318.15 K, 10000 kPa	795.2	826.6	858.2	889.9	921.4	953.2	983.8	1013.1	1041.7
318.15 K, 15000 kPa	799.7	830.9	862.4	893.9	925.4	957	987.5	1016.7	1045.1
318.15 K, 20000 kPa	803.8	835.1	866.4	897.8	929.1	960.7	991	1020.1	1048.4
318.15 K, 25000 kPa	807.8	839	870.2	901.5	932.7	964.2	994.4	1023.3	1051.6
318.15 K, 30000 kPa	811.6	842.8	–	–	–	–	–	–	–
